Data from US11021467B2, “Phosphatidylinositol 3-kinase inhibitors” (Gilead Sciences, Inc., priority 2014, dated 2021).
pIC50: −log10 of the molar value.

Tests used:
Assay in all cases: TR-FRET enzymatic activity assay against PI3K isoforms
Type in all cases: biochemical
[1] = molecular target: PI3Kδ (Homo sapiens (Human), UniProt O00329); conditions: 2×Km ATP, 30 minutes at 25° C.
Excerpt: (§1) The compounds of formula (I) were characterized for their enzymatic activity against the PI3K isoforms. […] TR-FRET monitored the formation of 3,4,5-inositol triphosphate molecule that competed with fluorescently labeled PIP3 for binding to the GRP-1 pleckstrin homology domain protein.

[2] = molecular target: PI3Kβ (Homo sapiens (Human), UniProt P42338); conditions: PI3Kβ, TR-FRET, 2×Km ATP, 30 minutes at 25° C.
Excerpt: as §1

[3] = molecular target: PI3Kγ (Homo sapiens (Human), UniProt P48736); conditions: 2×Km ATP, 30 minutes at 25° C.
Excerpt: as §1

PI3Kβ, sequence (P42338 whole entry): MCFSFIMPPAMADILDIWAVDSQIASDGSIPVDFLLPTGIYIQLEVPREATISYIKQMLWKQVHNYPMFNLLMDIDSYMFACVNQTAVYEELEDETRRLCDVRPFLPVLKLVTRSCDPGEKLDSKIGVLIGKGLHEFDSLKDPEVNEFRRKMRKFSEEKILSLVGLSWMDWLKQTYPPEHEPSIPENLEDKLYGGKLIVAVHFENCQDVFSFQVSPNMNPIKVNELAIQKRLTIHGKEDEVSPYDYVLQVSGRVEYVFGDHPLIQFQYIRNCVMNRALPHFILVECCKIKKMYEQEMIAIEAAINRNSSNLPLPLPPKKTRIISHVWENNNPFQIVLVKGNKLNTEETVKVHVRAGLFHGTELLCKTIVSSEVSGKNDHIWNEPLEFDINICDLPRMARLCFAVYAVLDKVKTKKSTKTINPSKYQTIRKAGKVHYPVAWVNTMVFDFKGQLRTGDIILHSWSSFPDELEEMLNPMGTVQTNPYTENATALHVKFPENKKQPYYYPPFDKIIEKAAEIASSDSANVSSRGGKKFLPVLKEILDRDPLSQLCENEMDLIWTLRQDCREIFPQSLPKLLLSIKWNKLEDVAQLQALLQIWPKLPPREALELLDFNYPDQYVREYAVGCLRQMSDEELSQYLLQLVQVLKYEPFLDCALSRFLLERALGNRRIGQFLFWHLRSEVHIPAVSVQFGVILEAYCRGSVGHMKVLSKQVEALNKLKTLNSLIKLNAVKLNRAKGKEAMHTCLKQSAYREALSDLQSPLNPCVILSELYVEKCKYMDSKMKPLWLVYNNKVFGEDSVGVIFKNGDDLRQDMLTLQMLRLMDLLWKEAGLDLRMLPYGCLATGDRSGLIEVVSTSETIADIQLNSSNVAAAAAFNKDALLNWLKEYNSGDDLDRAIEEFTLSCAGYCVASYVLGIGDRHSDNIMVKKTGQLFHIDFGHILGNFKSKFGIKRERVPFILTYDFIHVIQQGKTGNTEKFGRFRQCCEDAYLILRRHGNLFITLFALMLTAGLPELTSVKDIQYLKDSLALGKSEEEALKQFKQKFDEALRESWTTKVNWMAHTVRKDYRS
PI3Kβ, sequence (P27986 whole entry partner): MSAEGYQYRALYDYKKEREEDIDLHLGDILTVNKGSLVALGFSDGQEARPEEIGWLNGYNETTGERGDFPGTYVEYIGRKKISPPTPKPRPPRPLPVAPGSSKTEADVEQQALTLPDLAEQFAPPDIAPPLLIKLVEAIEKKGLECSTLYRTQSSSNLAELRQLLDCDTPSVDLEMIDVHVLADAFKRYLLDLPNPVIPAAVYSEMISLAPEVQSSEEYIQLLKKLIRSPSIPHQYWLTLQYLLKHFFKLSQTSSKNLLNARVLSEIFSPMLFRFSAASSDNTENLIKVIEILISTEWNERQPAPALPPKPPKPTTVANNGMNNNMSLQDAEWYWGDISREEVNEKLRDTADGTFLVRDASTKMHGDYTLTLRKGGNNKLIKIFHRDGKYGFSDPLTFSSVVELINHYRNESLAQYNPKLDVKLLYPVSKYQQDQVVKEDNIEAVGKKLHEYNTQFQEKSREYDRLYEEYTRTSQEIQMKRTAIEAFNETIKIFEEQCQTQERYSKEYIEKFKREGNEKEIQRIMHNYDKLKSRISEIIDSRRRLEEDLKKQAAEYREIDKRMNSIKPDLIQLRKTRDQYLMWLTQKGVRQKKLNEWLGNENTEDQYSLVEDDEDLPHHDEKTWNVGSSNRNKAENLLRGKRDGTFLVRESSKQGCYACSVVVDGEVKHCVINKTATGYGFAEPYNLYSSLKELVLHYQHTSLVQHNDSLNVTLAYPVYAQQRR
PI3Kδ, sequence (O00329 whole entry, the tested form may be a part, canonical isoform): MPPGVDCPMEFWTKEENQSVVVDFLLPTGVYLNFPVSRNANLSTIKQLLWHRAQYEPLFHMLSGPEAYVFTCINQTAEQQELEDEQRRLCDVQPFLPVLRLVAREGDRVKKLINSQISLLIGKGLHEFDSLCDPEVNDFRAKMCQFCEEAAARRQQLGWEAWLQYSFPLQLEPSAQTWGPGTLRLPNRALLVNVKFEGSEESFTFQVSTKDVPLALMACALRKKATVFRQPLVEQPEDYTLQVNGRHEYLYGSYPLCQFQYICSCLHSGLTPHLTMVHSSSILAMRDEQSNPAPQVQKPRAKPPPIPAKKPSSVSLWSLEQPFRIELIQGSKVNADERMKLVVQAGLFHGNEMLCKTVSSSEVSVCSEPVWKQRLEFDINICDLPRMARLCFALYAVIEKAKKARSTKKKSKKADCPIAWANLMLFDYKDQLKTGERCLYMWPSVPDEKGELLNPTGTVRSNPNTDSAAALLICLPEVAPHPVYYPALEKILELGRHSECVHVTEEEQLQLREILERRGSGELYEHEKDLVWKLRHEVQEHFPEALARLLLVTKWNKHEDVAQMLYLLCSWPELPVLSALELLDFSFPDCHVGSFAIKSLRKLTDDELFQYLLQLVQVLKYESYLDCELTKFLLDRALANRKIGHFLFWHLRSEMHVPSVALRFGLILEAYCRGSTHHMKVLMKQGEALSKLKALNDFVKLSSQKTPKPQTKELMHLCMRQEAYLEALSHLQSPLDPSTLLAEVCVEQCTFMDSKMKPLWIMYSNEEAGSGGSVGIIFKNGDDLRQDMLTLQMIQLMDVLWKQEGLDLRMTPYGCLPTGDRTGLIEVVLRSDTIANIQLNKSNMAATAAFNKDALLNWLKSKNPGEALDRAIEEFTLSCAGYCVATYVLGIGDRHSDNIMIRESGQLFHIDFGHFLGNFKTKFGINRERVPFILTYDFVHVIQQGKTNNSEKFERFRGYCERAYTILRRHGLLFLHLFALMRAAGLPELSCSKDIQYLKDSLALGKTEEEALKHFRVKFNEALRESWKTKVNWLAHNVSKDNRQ
PI3Kδ, sequence (P27986 whole entry partner, the tested form may be a part, canonical isoform): as the sequence (P27986 whole entry partner) above
PI3Kγ, sequence (P48736 whole entry): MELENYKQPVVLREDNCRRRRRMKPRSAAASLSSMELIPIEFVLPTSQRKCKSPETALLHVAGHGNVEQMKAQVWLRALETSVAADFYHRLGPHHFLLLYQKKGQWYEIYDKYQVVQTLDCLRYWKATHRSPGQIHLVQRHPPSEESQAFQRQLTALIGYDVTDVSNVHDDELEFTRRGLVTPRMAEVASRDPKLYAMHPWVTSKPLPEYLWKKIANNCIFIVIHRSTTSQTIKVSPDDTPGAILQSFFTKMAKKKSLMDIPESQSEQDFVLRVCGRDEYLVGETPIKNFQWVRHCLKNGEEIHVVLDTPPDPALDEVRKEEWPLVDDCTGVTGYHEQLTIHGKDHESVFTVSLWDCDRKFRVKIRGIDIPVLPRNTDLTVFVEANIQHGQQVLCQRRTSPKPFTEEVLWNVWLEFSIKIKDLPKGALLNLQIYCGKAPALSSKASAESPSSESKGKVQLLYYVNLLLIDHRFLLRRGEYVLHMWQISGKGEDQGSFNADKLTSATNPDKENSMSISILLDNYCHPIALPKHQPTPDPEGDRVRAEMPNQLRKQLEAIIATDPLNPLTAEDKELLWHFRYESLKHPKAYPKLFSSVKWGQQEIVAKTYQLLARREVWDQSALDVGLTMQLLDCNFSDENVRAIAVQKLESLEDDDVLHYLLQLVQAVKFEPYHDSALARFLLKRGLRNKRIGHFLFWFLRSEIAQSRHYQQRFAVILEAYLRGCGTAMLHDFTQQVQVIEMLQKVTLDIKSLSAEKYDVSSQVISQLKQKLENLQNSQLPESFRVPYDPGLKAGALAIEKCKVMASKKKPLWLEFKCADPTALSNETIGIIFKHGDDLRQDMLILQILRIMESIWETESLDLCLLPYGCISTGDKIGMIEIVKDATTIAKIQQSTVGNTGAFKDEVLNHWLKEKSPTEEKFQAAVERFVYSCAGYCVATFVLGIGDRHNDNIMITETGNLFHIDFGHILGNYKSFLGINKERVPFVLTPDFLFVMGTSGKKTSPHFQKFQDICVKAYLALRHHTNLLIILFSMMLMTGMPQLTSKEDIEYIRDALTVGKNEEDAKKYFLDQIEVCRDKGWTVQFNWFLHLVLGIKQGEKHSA

C[C@H](Nc1nc(N)nc(N)c1C#N)c1nc2cccc(Cl)c2c(=O)n1CCCC#N [Compound 110, (S)-2,4-diamino-6-((1-(5-chloro-3-(3-cyanopropyl)-4-oxo-3,4-dihydroquinazolin-2-yl)ethyl)amino)pyrimidine-5-carbonitrile]
pIC50 [1]: 8.40 | pIC50 [2]: 7.38 | pIC50 [3]: 6.74

Nc1nc(N)c(Cl)c(N[C@H](c2nc3c(Cl)ccc(Cl)c3c(=O)n2[C@H]2C[C@@H](O)C2)C2CC2)n1 [Compound 95, 5,8-dichloro-2-((S)-cyclopropyl((2,6-diamino-5-chloropyrimidin-4-yl)amino)methyl)-3-((cis)-3-hydroxycyclobutyl)quinazolin-4(3H)-one]
pIC50 [1]: 7.80 | pIC50 [2]: 6.14 | pIC50 [3]: ≤ 5.00

C[C@H](Nc1ncnc(N)c1C#N)c1nc2cccc(Cl)c2c(=O)n1C[C@@H](O)CO [Compound 142]
pIC50 [1]: 7.06 | pIC50 [2]: 6.28 | pIC50 [3]: ≤ 5.00

CC[C@H](Nc1nc(N)nc(N)c1C#N)c1nc2cccc(Cl)c2c(=O)n1CCCCC#N [Compound 116, (S)-2,4-diamino-6-((1-(5-chloro-3-(4-cyanobutyl)-4-oxo-3,4-dihydroquinazolin-2-yl)propyl)amino)pyrimidine-5-carbonitrile]
pIC50 [1]: 8.30 | pIC50 [2]: 6.82 | pIC50 [3]: 6.27

COCCCn1c([C@H](C)Nc2ncnc(N)c2C#N)nc2c(F)ccc(F)c2c1=O [Compound 108, (S)-4-amino-6-((1-(5,8-difluoro-3-(3-methoxypropyl)-4-oxo-3,4-dihydroquinazolin-2-yl)ethyl)amino)pyrimidine-5-carbonitrile]
pIC50 [1]: 7.41 | pIC50 [2]: 5.70 | pIC50 [3]: ≤ 5.00

C[C@H](Nc1nc(N)nc(N)c1C#N)c1nc2c(Cl)cc(F)cc2c(=O)n1[C@H]1C[C@@H](O)C1 [Compound 99, 2,4-diamino-6-(((S)-1-(8-chloro-6-fluoro-3-((cis)-3-hydroxycyclobutyl)-4-oxo-3,4-dihydroquinazolin-2-yl)ethyl)amino)pyrimidine-5-carbonitrile]
pIC50 [1]: 8.05 | pIC50 [2]: 6.54 | pIC50 [3]: 5.62

NC(=O)CCCn1c([C@@H](Nc2nc(N)nc(N)c2Cl)C2CC2)nc2cccc(Cl)c2c1=O [Compound 69, (S)-4-(5-chloro-2-(cyclopropyl((2,6-diamino-5-chloropyrimidin-4-yl)amino)methyl)-4-oxoquinazolin-3(4H)-yl)butanamide]
pIC50 [1]: 8.70 | pIC50 [2]: 7.31 | pIC50 [3]: 5.89

C[C@H](Nc1nc(N)nc(N)c1C#N)c1nc2cccc(Cl)c2c(=O)n1CCC(O)CNC(C)(C)C (stereo partly drawn) [Compound 75, 2,4-diamino-6-(((1S)-1-(3-(4-(tert-butylamino)-3-hydroxybutyl)-5-chloro-4-oxo-3,4-dihydroquinazolin-2-yl)ethyl)amino)pyrimidine-5-carbonitrile]
pIC50 [1]: 9.00 | pIC50 [2]: 7.72 | pIC50 [3]: 5.64

COC(C)(C)CCn1c([C@H](C)Nc2nc(N)nc(N)c2C#N)nc2cccc(Cl)c2c1=O [Compound 129, (S)-2,4-diamino-6-((1-(5-chloro-3-(3-methoxy-3-methylbutyl)-4-oxo-3,4-dihydroquinazolin-2-yl)ethyl)amino)pyrimidine-5-carbonitrile]
pIC50 [1]: 8.70 | pIC50 [2]: 6.54 | pIC50 [3]: 6.28

CC(CN)Cn1c([C@H](C)Nc2ncnc(N)c2C#N)nc2cccc(Cl)c2c1=O (stereo partly drawn) [Compound 27, 4-amino-6-(((1S)-1-(3-(3-amino-2-methylpropyl)-5-chloro-4-oxo-3,4-dihydroquinazolin-2-yl)ethyl)amino)pyrimidine-5-carbonitrile]
pIC50 [1]: 8.15 | pIC50 [2]: 6.70 | pIC50 [3]: ≤ 5.00

C[C@H](Nc1nc(N)nc(N)c1C#N)c1nc2cccc(Cl)c2c(=O)n1CCCN [Compound 42, (S)-2,4-diamino-6-((1-(3-(3-aminopropyl)-5-chloro-4-oxo-3,4-dihydroquinazolin-2-yl)ethyl)amino)pyrimidine-5-carbonitrile]
pIC50 [1]: 8.70 | pIC50 [2]: 7.82 | pIC50 [3]: 5.85

C[C@H](Nc1nc(N)nc(N)c1C#N)c1nc2cccc(Cl)c2c(=O)n1CCC#N [Compound 104, (S)-2,4-diamino-6-((1-(5-chloro-3-(2-cyanoethyl)-4-oxo-3,4-dihydroquinazolin-2-yl)ethyl)amino)pyrimidine-5-carbonitrile]
pIC50 [1]: 8.05 | pIC50 [2]: 7.24 | pIC50 [3]: 7.11

CNCCCn1c([C@H](C)Nc2nc(N)nc(C)c2C#N)nc2cccc(Cl)c2c1=O [Compound 41, (S)-2-amino-4-((1-(5-chloro-3-(3-(methylamino)propyl)-4-oxo-3,4-dihydroquinazolin-2-yl)ethyl)amino)-6-methylpyrimidine-5-carbonitrile]
pIC50 [1]: 8.52 | pIC50 [2]: 7.82 | pIC50 [3]: 5.74

C[C@H](Nc1nc(N)nc(N)c1C#N)c1nc2cccc(Cl)c2c(=O)n1CCc1ccn[nH]1 [Compound 140, (S)-4-((1-(3-(2-(1H-pyrazol-5-yl)ethyl)-5-chloro-4-oxo-3,4-dihydroquinazolin-2-yl)ethyl)amino)-2,6-diaminopyrimidine-5-carbonitrile]
pIC50 [1]: 8.22 | pIC50 [2]: 6.39 | pIC50 [3]: 6.23

N#Cc1c(N)nc(N)nc1N[C@H](c1nc2cccc(Cl)c2c(=O)n1CCCCC(N)=O)C1CC1 [Compound 64, (S)-5-(5-chloro-2-(cyclopropyl((2,6-diamino-5-cyanopyrimidin-4-yl)amino)methyl)-4-oxoquinazolin-3(4H)-yl)pentanamide]
pIC50 [1]: 9.00 | pIC50 [2]: 7.92 | pIC50 [3]: 6.96

C[C@H](Nc1nc(N)nc(N)c1C#N)c1nc2cccc(Cl)c2c(=O)n1C[C@H]1CCNC1 [Compound 125, 2,4-diamino-6-(((S)-1-(5-chloro-4-oxo-3-((S)-pyrrolidin-3-ylmethyl)-3,4-dihydroquinazolin-2-yl)ethyl)amino)pyrimidine-5-carbonitrile]
pIC50 [1]: 8.52 | pIC50 [2]: 7.31 | pIC50 [3]: 5.64

Cc1nc(N)nc(N[C@H](c2nc3cccc(Cl)c3c(=O)n2CCCN)C2CC2)c1C#N [Compound 49, (S)-2-amino-4-(((3-(3-aminopropyl)-5-chloro-4-oxo-3,4-dihydroquinazolin-2-yl)(cyclopropyl)methyl)amino)-6-methylpyrimidine-5-carbonitrile]
pIC50 [1]: 9.00 | pIC50 [2]: 9.00 | pIC50 [3]: 6.12

COCC(COC)n1c([C@H](C)Nc2nc(N)nc(N)c2C#N)nc2cccc(Cl)c2c1=O [Compound 131, (S)-2,4-diamino-6-((1-(5-chloro-3-(1,3-dimethoxypropan-2-yl)-4-oxo-3,4-dihydroquinazolin-2-yl)ethyl)amino)pyrimidine-5-carbonitrile]
pIC50 [1]: 7.89 | pIC50 [2]: 6.68 | pIC50 [3]: 5.85

C[C@H](Nc1nc(N)nc(N)c1C#N)c1nc2cccc(Cl)c2c(=O)n1Cc1nc[nH]n1 [Compound 81, (S)-4-((1-(3-((1H-1,2,4-triazol-3-yl)methyl)-5-chloro-4-oxo-3,4-dihydroquinazolin-2-yl)ethyl)amino)-2,6-diaminopyrimidine-5-carbonitrile]
pIC50 [1]: 8.30 | pIC50 [2]: 7.33 | pIC50 [3]: 6.49

CNCCCn1c([C@H](C)Nc2nc(N)nc(N)c2C#N)nc2cccc(Cl)c2c1=O [Compound 39, (S)-2,4-diamino-6-((1-(5-chloro-3-(3-(methylamino)propyl)-4-oxo-3,4-dihydroquinazolin-2-yl)ethyl)amino)pyrimidine-5-carbonitrile]
pIC50 [1]: 8.52 | pIC50 [2]: 7.60 | pIC50 [3]: 5.62

C[C@H](Nc1nc(N)nc(N)c1C#N)c1nc2cccc(Cl)c2c(=O)n1CC1CCCNC1 (stereo in doubt) [Compound 123, 2,4-diamino-6-(((S)-1-(5-chloro-4-oxo-3-((R)-piperidin-3-ylmethyl)-3,4-dihydroquinazolin-2-yl)ethyl)amino)pyrimidine-5-carbonitrile]
pIC50 [1]: 8.52 | pIC50 [2]: 7.10 | pIC50 [3]: 5.89

C[C@H](Nc1ncnc(N)c1C#N)c1nc2cccc(Cl)c2c(=O)n1CCCN(C)C [Compound 57, (S)-4-amino-6-((1-(5-chloro-3-(3-(dimethylamino)propyl)-4-oxo-3,4-dihydroquinazolin-2-yl)ethyl)amino)pyrimidine-5-carbonitrile]
pIC50 [1]: 8.22 | pIC50 [2]: 6.32 | pIC50 [3]: ≤ 5.00

CNCCCn1c([C@H](C)Nc2ncnc(N)c2C#N)nc2cccc(Cl)c2c1=O [Compound 31, (S)-4-amino-6-((1-(5-chloro-3-(3-(methylamino)propyl)-4-oxo-3,4-dihydroquinazolin-2-yl)ethyl)amino)pyrimidine-5-carbonitrile]
pIC50 [1]: 8.22 | pIC50 [2]: 7.33 | pIC50 [3]: ≤ 5.00

C[C@H](Nc1nc(N)nc(N)c1C#N)c1nc2cccc(Cl)c2c(=O)n1CCCS(C)(=O)=O [Compound 111, (S)-2,4-diamino-6-((1-(5-chloro-3-(3-(methylsulfonyl)propyl)-4-oxo-3,4-dihydroquinazolin-2-yl)ethyl)amino)pyrimidine-5-carbonitrile]
pIC50 [1]: 8.52 | pIC50 [2]: 7.40 | pIC50 [3]: 6.28

C[C@H](Nc1ncnc2scnc12)c1nc2cccc(Cl)c2c(=O)n1CCCN [Compound 72, (S)-3-(3-aminopropyl)-5-chloro-2-(1-(thiazolo[5,4-d]pyrimidin-7-ylamino)ethyl)quinazolin-4(3H)-one]
pIC50 [1]: 7.92 | pIC50 [2]: 7.46 | pIC50 [3]: 5.10

C[C@H](NC(=O)c1nc(Br)c(N)nc1N)c1nc2cccc(Cl)c2c(=O)n1CCCN [Compound 50, (S)-3,5-diamino-N-(1-(3-(3-aminopropyl)-5-chloro-4-oxo-3,4-dihydroquinazolin-2-yl)ethyl)-6-bromopyrazine-2-carboxamide]
pIC50 [1]: 7.15 | pIC50 [2]: 7.12 | pIC50 [3]: 5.34
